PubChem BioAssay AID330 (DTP/NCI, 2004)
Several values for one entry are separate records, joined by “and”; a condition that tells them apart may be missing. Equal values may be shown once. Toxic doses and inconclusive results are not listed. How the source made its calls: active means survival T/C of 150% or more; inactive means T/C below 125% in these data. Peptide text beside a SMILES is read from it. * marks the point of attachment. Bn = c1ccc(C*)cc1

Test system: P388 leukemia ip, CD2F1 mice, survival T/C
Assay: NCI In Vivo Anticancer Drug Screen. Data for tumor model P388 Leukemia (intraperitoneal) in CD2F1 (CDF1) mice
Settings: endpoint: median survival time, higher = longer survival
How it was run: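 Mice carrying the transplanted tumor received test compound or vehicle. Survival was recorded in each group, and the value is the treated-group measurement divided by that of the vehicle-treated control group.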

[1] = dose: 60.0 mg/kg/injection, schedule: Q01DX005 (ip), vehicle: saline with Tween-80
[2] = dose: 120.0 mg/kg/injection, schedule: Q01DX005 (ip), vehicle: saline with Tween-80
[3] = dose: 240.0 mg/kg/injection, schedule: Q01DX005 (ip), vehicle: saline with Tween-80
[4] = dose: 50.0 mg/kg/injection, schedule: Q01DX005 (ip), vehicle: saline with Tween-80
[5] = dose: 100.0 mg/kg/injection, schedule: Q01DX005 (ip), vehicle: saline with Tween-80
[6] = dose: 200.0 mg/kg/injection, schedule: Q01DX005 (ip), vehicle: saline with Tween-80
[7] = dose: 100.0 mg/kg/injection, schedule: Q01DX009 (ip), vehicle: Klucel (hydroxypropylcellulose) (HPC)
[8] = dose: 200.0 mg/kg/injection, schedule: Q01DX009 (ip), vehicle: Klucel (hydroxypropylcellulose) (HPC)
[9] = dose: 25.0 mg/kg/injection, schedule: Q01DX009 (ip), vehicle: saline with Tween-80
[10] = dose: 50.0 mg/kg/injection, schedule: Q01DX009 (ip), vehicle: saline with Tween-80
[11] = dose: 50.0 mg/kg/injection, schedule: Q01DX005 (ip), vehicle: Klucel (hydroxypropylcellulose) (HPC)
[12] = dose: 100.0 mg/kg/injection, schedule: Q01DX005 (ip), vehicle: Klucel (hydroxypropylcellulose) (HPC)
[13] = dose: 200.0 mg/kg/injection, schedule: Q01DX005 (ip), vehicle: Klucel (hydroxypropylcellulose) (HPC)

Measured: T/C

C=C1C(=O)OC2/C=C(/COC(=O)CCCCC)CCC(OCC)C3=CC(OC3=O)C12 (stereo unspecified)
inactive: dose: 4.0 mg/kg/injection, schedule: Q01DX009 (ip), vehicle: Klucel (hydroxypropylcellulose) (HPC) 105 % of control | dose: 8.0 mg/kg/injection, schedule: Q01DX009 (ip), vehicle: Klucel (hydroxypropylcellulose) (HPC) 105 % of control | dose: 16.0 mg/kg/injection, schedule: Q01DX009 (ip), vehicle: Klucel (hydroxypropylcellulose) (HPC) 108 % of control | dose: 32.0 mg/kg/injection, schedule: Q01DX009 (ip), vehicle: Klucel (hydroxypropylcellulose) (HPC) 123 % of control

COc1ccc(C(O)Cc2cc(OC)c(OC)c(OC)c2)cc1O (stereo unspecified)
inactive: dose: 31.25 mg/kg/injection, schedule: Q01DX009 (ip), vehicle: saline + Tween-80 + alcohol 105 % of control | dose: 62.5 mg/kg/injection, schedule: Q01DX009 (ip), vehicle: saline + Tween-80 + alcohol 98 % of control | dose: 125.0 mg/kg/injection, schedule: Q01DX009 (ip), vehicle: saline + Tween-80 + alcohol 89 % of control | dose: 250.0 mg/kg/injection, schedule: Q01DX009 (ip), vehicle: saline + Tween-80 + alcohol 91 % of control

Cc1ccccc1-n1cccc1C(=O)O
inactive: [1] 95 % of control | [2] 93 % of control | [3] 99 % of control

Cc1ccccc1NC(=S)NC1C(=O)Nc2ccccc21 (stereo unspecified)
inactive: [4] 101 % of control | [5] 107 % of control | [6] 98 % of control

C[N+]1(CCC(=O)c2ccccc2)CCOCC1
inactive: dose: 6.25 mg/kg/injection, schedule: Q01DX009 (ip), vehicle: saline 100 % of control | dose: 12.5 mg/kg/injection, schedule: Q01DX009 (ip), vehicle: saline 103 % of control | dose: 25.0 mg/kg/injection, schedule: Q01DX009 (ip), vehicle: saline 100 % of control | dose: 50.0 mg/kg/injection, schedule: Q01DX009 (ip), vehicle: saline 100 % of control and 97 % of control | dose: 200.0 mg/kg/injection, schedule: Q01DX009 (ip), vehicle: saline 96 % of control

CC1=NN(c2ccccc2)C(=O)/C1=C(\[O-])c1ccccc1.CC1=NN(c2ccccc2)C(=O)/C1=C(\[O-])c1ccccc1.CC1=NN(c2ccccc2)C(=O)/C1=C(\[O-])c1ccccc1.[Fe+3]
inactive: dose: 15.0 mg/kg/injection, schedule: Q01DX005 (ip), vehicle: saline with Tween-80 96 % of control and 97 % of control | dose: 30.0 mg/kg/injection, schedule: Q01DX005 (ip), vehicle: saline with Tween-80 101 % of control and 90 % of control | [2] 104 % of control and 87 % of control

O=S(=O)(Nc1ccc(C(F)(F)F)cc1)c1ccc(F)cc1
inactive: [1] 100 % of control | [2] 100 % of control | [3] 104 % of control

CCCCCCCCCCCCN1CCS(=O)(=O)CC1
inactive: dose: 25.0 mg/kg/injection, schedule: Q01DX009 (ip), vehicle: Klucel (hydroxypropylcellulose) (HPC) 112 % of control | dose: 50.0 mg/kg/injection, schedule: Q01DX009 (ip), vehicle: Klucel (hydroxypropylcellulose) (HPC) 95 % of control | [7] 118 % of control | [8] 101 % of control

CCOc1ccc(N=NC2C(=O)N(c3cccc(Cl)c3Cl)C(=S)N(c3ccccc3)C2O)cc1 (stereo unspecified)
inactive: dose: 100.0 mg/kg/injection, schedule: Q01DX001 (ip), vehicle: Klucel (hydroxypropylcellulose) (HPC) 99 % of control | dose: 200.0 mg/kg/injection, schedule: Q01DX001 (ip), vehicle: Klucel (hydroxypropylcellulose) (HPC) 100 % of control | dose: 400.0 mg/kg/injection, schedule: Q01DX001 (ip), vehicle: Klucel (hydroxypropylcellulose) (HPC) 97 % of control

CCCCCC(Cn1ccnc1)c1ccccc1Br (stereo unspecified)
inactive: dose: 25.0 mg/kg/injection, schedule: Q04DX003 (ip), vehicle: saline with Tween-80 106 % of control | dose: 33.0 mg/kg/injection, schedule: Q04DX003 (ip), vehicle: saline with Tween-80 107 % of control | dose: 50.0 mg/kg/injection, schedule: Q04DX003 (ip), vehicle: saline with Tween-80 100 % of control and 108 % of control and 122 % of control | dose: 75.0 mg/kg/injection, schedule: Q04DX003 (ip), vehicle: saline with Tween-80 92 % of control | dose: 100.0 mg/kg/injection, schedule: Q04DX003 (ip), vehicle: saline with Tween-80 106 % of control and 111 % of control and 90 % of control

C=CC1CCC[S+]1CC(=O)C(Cl)(Cl)Cl (stereo unspecified)
inactive: dose: 100.0 mg/kg/injection, schedule: Q01DX001 (ip), vehicle: saline with Tween-80 102 % of control | dose: 200.0 mg/kg/injection, schedule: Q01DX001 (ip), vehicle: saline with Tween-80 109 % of control

Cc1c2oc3c(C)ccc(C(=O)NCCc4ccccc4)c3nc-2c(C(=O)NCCc2ccccc2)c(N)c1=O
inactive: dose: 50.0 mg/kg/injection, schedule: Q04DX003 (ip), vehicle: DMSO 92 % of control | dose: 100.0 mg/kg/injection, schedule: Q04DX003 (ip), vehicle: DMSO 91 % of control | dose: 200.0 mg/kg/injection, schedule: Q04DX003 (ip), vehicle: DMSO 90 % of control

CC12CCCCC1=Nc1ccc3ccccc3c12 (stereo unspecified)
inactive: dose: 12.5 mg/kg/injection, schedule: Q01DX009 (ip), vehicle: saline with Tween-80 92 % of control | [9] 90 % of control | [10] 92 % of control

O=C1c2c(-c3ccccc3)ccc(-c3ccccc3)c2C2(O)OC1(O)c1c(-c3ccccc3)ccc(-c3ccccc3)c1C2=O
inactive: [11] 94 % of control | [12] 90 % of control | [13] 92 % of control

CNCC(=O)Nc1ccc(C2NC(=O)Cc3ccccc32)cc1 (stereo unspecified)
inactive: dose: 100.0 mg/kg/injection, schedule: Q04DX002 (ip), vehicle: saline 104 % of control | dose: 200.0 mg/kg/injection, schedule: Q04DX002 (ip), vehicle: saline 111 % of control

NCC(=O)NCC(=O)NC(Cc1ccc(OCc2ccccc2)cc1)C(=O)NC(CCCN=C(N)N)C(=O)O (stereo unspecified) (H-GGY(Bn)R-OH; configuration not given here)
inactive: dose: 60.0 mg/kg/injection, schedule: Q01DX005 (ip), vehicle: saline 95 % of control | dose: 120.0 mg/kg/injection, schedule: Q01DX005 (ip), vehicle: saline 100 % of control | dose: 240.0 mg/kg/injection, schedule: Q01DX005 (ip), vehicle: saline 100 % of control

ClCCN1c2ccc3ccccc3c2Sc2c1ccc1ccccc21
inactive: [4] 96 % of control | [5] 92 % of control | [6] 97 % of control

COc1cc2ccnc(C=O)c2cc1OC
inactive: [9] 110 % of control | [10] 110 % of control | dose: 100.0 mg/kg/injection, schedule: Q01DX009 (ip), vehicle: saline with Tween-80 107 % of control

COc1ccc(C(C)c2cc3c(cc2OC)OCO3)c(C)c1 (stereo unspecified)
inactive: [11] 116 % of control | [12] 92 % of control | [13] 119 % of control

COc1cc(-c2nn(CN3CCN(Cn4nc(-c5cc(OC)c(OC)c(OC)c5)oc4=S)CC3)c(=S)o2)cc(OC)c1OC
inactive: [11] 97 % of control | [12] 87 % of control | [13] 93 % of control

O=c1oc(-c2cccc(F)c2)ns1
inactive: [7] 115 % of control | [8] 116 % of control | dose: 400.0 mg/kg/injection, schedule: Q01DX009 (ip), vehicle: Klucel (hydroxypropylcellulose) (HPC) 115 % of control

NC(=O)C1C2C=CC(C2)C1C(N)=O (stereo unspecified)
inactive: dose: 60.0 mg/kg/injection, schedule: Q01DX005 (ip), vehicle: Klucel (hydroxypropylcellulose) (HPC) 97 % of control | dose: 120.0 mg/kg/injection, schedule: Q01DX005 (ip), vehicle: Klucel (hydroxypropylcellulose) (HPC) 103 % of control | dose: 240.0 mg/kg/injection, schedule: Q01DX005 (ip), vehicle: Klucel (hydroxypropylcellulose) (HPC) 97 % of control

CCc1nc(N)nc(N)c1-c1ccc([N+](=O)[O-])cc1
inactive: [4] 108 % of control | [5] 108 % of control

Cc1ccc(/C=C2\SC(=S)N(C3CC3)C2=O)cc1
inactive: [11] 97 % of control | [12] 95 % of control | [13] 93 % of control
